The assay addresses rat MCH-1 (Rattus norvegicus, UniProt P97639). Kind of assay: Radioligand binding assay at cloned rat MCH1 receptor ([3H] Compound A). More on the design: host or cells: Peak rapid 293 (Peakr293) cells, transient calcium phosphate transfection, membranes. The settings on record: cloned rat MCH1 receptor, membranes from Peakr293 cells, 0.08 nM [3H] Compound A; read-out: Ki (nM) rMCH1.
Sequence of rat MCH-1 (P97639 whole entry): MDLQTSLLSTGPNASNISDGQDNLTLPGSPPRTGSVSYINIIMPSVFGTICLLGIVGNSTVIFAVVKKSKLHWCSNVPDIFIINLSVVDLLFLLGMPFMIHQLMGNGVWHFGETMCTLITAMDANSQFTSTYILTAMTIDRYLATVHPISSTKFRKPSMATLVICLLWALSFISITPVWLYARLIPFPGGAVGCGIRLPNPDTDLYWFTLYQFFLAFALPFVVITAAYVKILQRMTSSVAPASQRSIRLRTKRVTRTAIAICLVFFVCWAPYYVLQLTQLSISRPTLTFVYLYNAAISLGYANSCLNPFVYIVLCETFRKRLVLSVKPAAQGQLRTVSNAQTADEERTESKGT
The Ki is a dissociation constant, usually derived from enzyme kinetics or from competition with a known ligand. Take `CC(C)C(=O)Nc1cccc(C2CCN(CC[C@H](NC(=O)c3ccccn3)c3ccccc3)CC2)c1` [Example 309]: the Ki came out at 310 nM.

For the compound `COc1ccccc1C(=O)N[C@@H](CCN1CCC(c2cccc(NC(=O)C(C)C)c2)CC1)c1ccccc1` [Example 310], the Ki was 152 nM.

As for `CC(C)C(=O)Nc1cccc(C2CCN(CC[C@H](NC(=O)c3cccc4ccccc34)c3ccccc3)CC2)c1` [Example 311], the Ki was 43 nM.

In the case of `CC(C)C(=O)Nc1cccc(C2CCN(CC[C@H](NC(=O)c3ccc(F)cc3F)c3ccccc3)CC2)c1` [Example 312], the Ki amounted to 61.5 nM.

With `Cc1onc(-c2c(F)cccc2Cl)c1C(=O)N[C@@H](CCN1CCC(c2cccc(NC(=O)C(C)C)c2)CC1)c1ccccc1` [Example 313], the inhibitory constant (Ki) amounted to 249 nM.

On to `CC(C)C(=O)Nc1cccc(C2CCN(CC[C@H](NC(=O)c3sccc3Cl)c3ccccc3)CC2)c1` [Example 314], for which the Ki amounted to 7.6 nM.

As to `CC(C)C(=O)Nc1cccc(C2CCN(CC[C@H](NC(=O)c3cccnc3Oc3ccccc3)c3ccccc3)CC2)c1` [Example 315], the Ki was determined as 11.4 nM.

As for `CCCc1nn(-c2ccc(Cl)cc2)cc1C(=O)N[C@@H](CCN1CCC(c2cccc(NC(=O)C(C)C)c2)CC1)c1ccccc1` [Example 316], the Ki came out at 8.3 nM.

With `Cc1nn(C)c2ncc(C(=O)N[C@@H](CCN3CCC(c4cccc(NC(=O)C(C)C)c4)CC3)c3ccccc3)c(Cl)c12` [Example 317], the Ki turned out to be 110 nM.

Take `CC(C)C(=O)Nc1cccc(C2CCN(CC[C@H](NC(=O)c3ccc(Oc4cc(Cl)cc(Cl)c4)[nH]3)c3ccccc3)CC2)c1` [Example 318]: the Ki stood at 251 nM.

In the case of `CC(C)C(=O)Nc1cccc(C2CCN(CC[C@H](NC(=O)c3cccnc3)c3ccccc3)CC2)c1` [Example 319], the Ki was found to be 89.8 nM.

As for `CC(C)C(=O)Nc1cccc(C2CCN(CC[C@H](NC(=O)c3ccc(F)c(F)c3)c3ccccc3)CC2)c1` [Example 320], the Ki was 10.6 nM.

With `CCCc1nn(-c2ccccc2)cc1C(=O)N[C@@H](CCN1CCC(c2cccc(NC(=O)C(C)C)c2)CC1)c1ccccc1` [Example 321], the Ki turned out to be 50.9 nM.

On to `CC(C)C(=O)Nc1cccc(C2CCN(CC[C@H](NC(=O)c3ccc(N(C)C)cc3)c3ccccc3)CC2)c1` [Example 322], for which the Ki worked out at 99.9 nM.

Take `CC(C)C(=O)Nc1cccc(C2CCN(CC[C@H](NC(=O)c3cccs3)c3ccccc3)CC2)c1` [Example 323]: the Ki turned out to be 37 nM.

With `CC(C)C(=O)Nc1cccc(C2CCN(CC[C@H](NC(=O)c3ccc([N+](=O)[O-])o3)c3ccccc3)CC2)c1` [Example 324], the Ki amounted to 76.8 nM.

In the case of `Cc1onc(-c2ccccc2)c1C(=O)NCCCN1CCC(c2cccc(NC(=O)C(C)C)c2)CC1` [Example 325], the Ki is 29.8 nM.

For the compound `CC(C)C(=O)Nc1cccc(C2CCN(CC[C@H](NC(=O)c3ccco3)c3ccccc3)CC2)c1` [Example 326], the Ki was determined as 19.2 nM.

On to `CC(C)C(=O)Nc1cccc(C2CCN(CC[C@H](NC(=O)c3cnn(-c4ccc([N+](=O)[O-])cc4)c3C(F)(F)F)c3ccccc3)CC2)c1` [Example 327], for which the inhibition constant Ki was found to be 7.7 nM.

Consider `Cc1onc(-c2c(F)cccc2Cl)c1C(=O)NCCCN1CCC(c2cccc(NC(=O)C(C)C)c2)CC1` [Example 328], for which the Ki worked out at 47.6 nM.

For `CC(C)C(=O)Nc1cccc(C2CCN(CCCNC(=O)c3csc4ccccc34)CC2)c1` [Example 330], the Ki turned out to be 215 nM.

Turning to `Cc1onc(-c2ccccc2Cl)c1C(=O)NCCCN1CCC(c2cccc(NC(=O)C(C)C)c2)CC1` [Example 331], the Ki is 51.3 nM.

Take `Cc1onc(-c2c(Cl)cccc2Cl)c1C(=O)NCCCN1CCC(c2cccc(NC(=O)C(C)C)c2)CC1` [Example 332]: the Ki amounted to 29 nM.

Regarding `CC(=O)c1cccc(O[C@H](CN2CCC(c3cccc(NC(=O)C(C)C)c3)CC2)c2ccccc2)c1` [Example 333], the Ki came out at 568 nM.

As for `CC(=O)c1ccccc1O[C@H](CN1CCC(c2cccc(NC(=O)C(C)C)c2)CC1)c1ccccc1` [Example 334], the Ki is 603 nM.

Turning to `CC(C)C(=O)Nc1cccc(C2CCN(C[C@@H](Oc3cccc(Cl)c3)c3ccccc3)CC2)c1` [Example 335], the Ki came out at 888 nM.

`COc1ccc(O[C@H](CN2CCC(c3cccc(NC(=O)C(C)C)c3)CC2)c2ccccc2)cc1OC` [Example 336]: the Ki worked out at 693 nM.

Take `CC(C)C(=O)Nc1cccc(C2CCN(C[C@H](Oc3ccc(F)cc3)c3ccccc3)CC2)c1` [Example 337]: the Ki is 907 nM.

`COc1cccc(O[C@@H](CN2CCC(c3cccc(NC(=O)C(C)C)c3)CC2)c2ccccc2)c1` [Example 338]: the Ki turned out to be 844 nM.

In the case of `CC(C)C(=O)Nc1cccc(C2CCN(C[C@H](Oc3cccc(Cl)c3)c3ccccc3)CC2)c1` [Example 339], the Ki was 890 nM.

For the compound `CC(=O)c1cccc(O[C@@H](CCN2CCC(c3cccc(NC(=O)C4CC4)c3)CC2)c2ccccc2)c1` [Example 340], the Ki amounted to 15.6 nM.

On to `CC(=O)c1cccc(OCCCN2CCC(c3cccc(NC(=O)C(C)C)c3)CC2)c1` [Example 341], for which the Ki stood at 256 nM.

For the compound `CC(=O)c1cccc(OCCCN2CCC(c3cccc(NC(=O)C4CC4)c3)CC2)c1` [Example 342], the Ki worked out at 183 nM.

Take `CC(C)C(=O)Nc1cccc(C2CCN(CCCOc3ccccc3F)CC2)c1` [Example 343]: the Ki came out at 195 nM.

For the compound `CC(C)C(=O)Nc1cccc(C2CCN(CCCOc3cccc(Cl)c3)CC2)c1` [Example 344], the Ki was 44.6 nM.

Take `CC(C)C(=O)Nc1cccc(C2CCN(CCCOc3ccc(Cl)cc3)CC2)c1` [Example 345]: the Ki is 15.4 nM.

Regarding `CC(C)C(=O)Nc1cccc(C2CCN(CCCOc3cccc(F)c3)CC2)c1` [Example 346], the Ki stood at 107 nM.

Regarding `CC(C)C(=O)Nc1cccc(C2CCN(CCCOc3ccc(F)cc3)CC2)c1` [Example 347], the Ki is 54.8 nM.

Consider `CC(C)C(=O)Nc1cccc(C2CCN(CCCOc3ccccc3Cl)CC2)c1` [Example 348], for which the Ki worked out at 84 nM.

For the compound `Cc1ccc(OCCCN2CCC(c3cccc(NC(=O)C(C)C)c3)CC2)cc1C` [Example 349], the Ki is 20.4 nM.

Regarding `CC(C)C(=O)Nc1cccc(C2CCN(CCCOc3ccccc3Br)CC2)c1` [Example 350], the Ki was determined as 12.1 nM.

With `CC(C)C(=O)Nc1cccc(C2CCN(CCCOc3cccc(Br)c3)CC2)c1` [Example 351], the Ki is 61.8 nM.

As for `CC(C)C(=O)Nc1cccc(C2CCN(CCCOc3ccc(Br)cc3)CC2)c1` [Example 352], the Ki is 13.3 nM.

`COc1ccc(O[C@H](CCN2CCC(c3cccc(N(C)C(=O)C(C)C)c3)CC2)c2ccccc2)cc1OC` [Example 353]: the inhibitory constant (Ki) was 41.8 nM.

`CC(=O)c1cccc(O[C@H](CCN2CCC(c3cccc(N(C)C(=O)C(C)C)c3)CC2)c2ccccc2)c1` [Example 354]: the Ki was 81.6 nM.

For `CC(=O)c1cccc(O[C@@H](CCN2CCC(c3cccc(N(C)C(=O)C(C)C)c3)CC2)c2ccccc2)c1` [Example 355], the Ki came to 117 nM.

Consider `CC(C)C(=O)Nc1cccc(C2CCN(C[C@H](C)COc3ccc(Br)cc3)CC2)c1` [Example 356], for which the Ki worked out at 54.5 nM.

Consider `CC(C)C(=O)Nc1cccc(C2CCN(C[C@H](C)COc3cc(F)c(F)cc3F)CC2)c1` [Example 357], for which the Ki is 115 nM.

Turning to `CC(C)C(=O)Nc1cccc(C2CCN(C[C@H](C)COc3cccc(Cl)c3)CC2)c1` [Example 358], the Ki was 136 nM.

The values are drawn from patent US6727264B1 (Synaptic Pharmaceutical Corporation, priority 2001, dated 2004).
